Assay results as given in patent publication US20120196933A1, “MEXILETINE PRODRUGS” (priority 2010, published 2012).
“And” between values parts separate entries of the source, which are not always exact repeats. Identical values can stand only once. Like-named read-outs stand apart in the source and are kept apart here. Marks after values point to notes of the source that are not given here.

How the values were obtained:
[1] = In vitro stability of mexiletine prodrugs under conditions prevailing in the gut; assay type: physicochemical; conditions: HPLC
Description: To investigate if the prodrugs of the present invention are stable in conditions mimicking the gut, various mexiletine amino acid prodrugs were incubated at 37° C. in simulated gastric and simulated intestinal juice (USP defined composition) for 2 hours. The remaining concentrations of the prodrug were then assayed by HPLC.

[2] = Systemic availability of mexiletine in the dog from mexiletine prodrugs (oral gavage); assay type: in vivo
Description: Test substances (i.e., mexiletine, and various mexiletine amino acid prodrugs) were administered by oral gavage to groups of two or some cases five dogs. The characteristics of the test animals are set out in Table 6.
Blood samples were taken at various times after administration and submitted to analysis for parent drug using a validated LC-MS-MS assay. Pharmacokinetic parameters derived from the plasma bioanalytical data were determined using Win Nonlin.

[3] = Systemic availability of mexiletine in the cynomolgus monkey from mexiletine prodrugs (oral gavage); assay type: in vivo; conditions: 1 mg/kg mexiletine free base
Description: Test substances (i.e., mexiletine, and various mexiletine amino acid prodrugs) were administered by oral gavage to groups of two and, in one case, five male cynomolgus monkeys. Blood samples were taken at various times after administration and submitted to analysis for the parent drug using a validated LC-MS-MS assay. Pharmacokinetic parameters derived from the plasma bioanalytical data were determined using Win Nonlin.

ADR mouse = experiment: Anti-myotonic effects in the ADR mouse (righting response); assay type: in vivo
Description: The effects of oral administration of either mexiletine glutamic acid amide at 5, 10 or 20 mg/kg or mexiletine 5 mg/kg on the righting response of a group of three adr/adr mice were examined on three separate days. Each assessment involved placing the individual mice on their back no fewer than seven successive occasions in rapid succession and determining the time to successful righting at various time pre and post dosing (−10, +15, +30, +60, +120 & +180 mins).

[4] = system: 9-AC induced myotonia in the rat; experiment: Anti-myotonic effects in 9-anthracene carboxylic acid (9-AC) treated rats (righting time); assay type: in vivo; conditions: for Mean ± SEM righting response time: 9-AC 30 mg/kg ip
Description: The use of ip injection of 9-anthracene carboxylic acid is known to induce a myotonic state in rats which can then be used to assess the activity of potential anti-myotonic compounds (Villegas-NavarroA et al (1992) Exp. Toxicol. Pathol. 44 34-39).
Groups of four rats were predosed with 30 mg/kg 9-AC (time 0) and ten minutes later their righting time was assessed repeatedly seven times in rapid succession. They were then dosed po with mexiletine or mexiletine glutamic acid amide at 1, 5, 10, 20 or 40 mg/kg and the righting time reassessed at ˜30, 60, 120 and 180 minutes after 9-AC injection. At each dose level, a group of four control animals, given vehicle alone, was used

[5] = rat
Description: Test substances (i.e., mexiletine & mexiletine glutamic acid amide) were administered by oral gavage to groups of five male Sprague Dawley rats.
Blood samples were taken at various times after administration and submitted to analysis for the prodrug and parent drug using a validated LC-MS-MS assay. Pharmacokinetic parameters derived from the plasma analytical were determined using Win Nonlin.

[6] = In vitro stability of mexiletine prodrugs under conditions prevailing in the gut; assay type: physicochemical; conditions: 0.1M phosphate buffer pH 7.4, 2 h
[7] = 1 mg/kg mexiletine free base, plasma mexiletine
[8] = oral 5 mg mexiletine free base equivalents/kg, individual animals, Hydrochloride
[9] = oral 5 mg mexiletine free base equivalents/kg, plasma prodrug, individual animals, Hydrochloride
[10] = oral 5 mg mexiletine free base equivalents/kg, plasma prodrug, mean

## Cc1cccc(C)c1OCC(C)NC(=O)C(N)CCC(=O)O.Cl (mixture of isomers) [Mexiletine glutamic acid amide, Mexiletine-(S)-Glutamic Acid Amide Hydrochloride]
[1]; simulated gastric fluid pH 1.1, 2 h
  Simulated gastric fluid (pH 1.1): % remaining after 2 h/37° C.: 100%
[1]; simulated intestinal fluid pH 6.8, 2 h
  Simulated intestinal fluid (pH 6.8): % remaining after 2 h/37° C.: 98.3%
[2]
  Bioavailability with respect to mexiletine: near complete
[2]; [7]
  AUC of mexiletine: 1.02 µg·h/mL
  Cmax of mexiletine: 0.104 µg/mL
  T50% Cmax: 7.64 h
[2]; 1 mg/kg mexiletine free base, relative to mexiletine, Hydrochloride, 1 mg/kg
  F(rel): 94.9%
[3]; plasma mexiletine
  AUC of mexiletine: 0.604 µg·h/mL
  Cmax of mexiletine: 0.0906 µg/mL
  T50% Cmax: 4.76 h
[3]; relative to mexiletine, Hydrochloride, 1 mg/kg
  F(rel): 87.6%
ADR mouse; oral 5 mg/kg
  Effects on righting time: marginal
ADR mouse; oral 5 mg/kg, +15 mins
  Mean ± SEM righting response time: 5.70 ± 0.864 s
ADR mouse; oral 5 mg/kg, +30 mins
  Mean ± SEM righting response time: 6.53 ± 0.928 s
ADR mouse; oral 5 mg/kg, +60 mins
  Mean ± SEM righting response time: 7.13 ± 1.46 s
ADR mouse; oral 5 mg/kg, +120 mins
  Mean ± SEM righting response time: 9.22 ± 1.44 s
ADR mouse; oral 5 mg/kg, +180 mins
  Mean ± SEM righting response time: 8.38 ± 0.601 s
ADR mouse; oral 5 mg/kg, −10 mins (pre dosing)
  Mean ± SEM righting response time: 5.10 ± 0.580 s
ADR mouse; oral 10 mg/kg, +15 mins
  Mean ± SEM righting response time: 3.14 ± 0.278 s
ADR mouse; oral 10 mg/kg, +30 mins, listed as MGAA, Hydrochloride, 10 mg/kg
  Mean ± SEM righting response time: 2.74+0.37 secs and 2.74 ± 0.373 secs
ADR mouse; oral 10 mg/kg, +60 mins
  Mean ± SEM righting response time: 4.41 ± 1.02 s
ADR mouse; oral 10 mg/kg, +120 mins
  Mean ± SEM righting response time: 5.45 ± 0.529 s
ADR mouse; oral 10 mg/kg, +180 mins
  Mean ± SEM righting response time: 6.92 ± 1.05 s
ADR mouse; oral 10 mg/kg, −10 mins (pre dosing), listed as MGAA, Hydrochloride, 10 mg/kg
  Mean ± SEM righting response time: 5.18 ± 0.43 s and 5.18 ± 0.427 s
ADR mouse; oral 20 mg/kg, +15 mins
  Mean ± SEM righting response time: 4.23 ± 1.09 s
ADR mouse; oral 20 mg/kg, +30 mins
  Mean ± SEM righting response time: 3.06 ± 0.884 s
ADR mouse; oral 20 mg/kg, +60 mins
  Mean ± SEM righting response time: 4.05 ± 0.286 s
ADR mouse; oral 20 mg/kg, +120 mins
  Mean ± SEM righting response time: 5.90 ± 0.568 s
ADR mouse; oral 20 mg/kg, +180 mins
  Mean ± SEM righting response time: 7.90 ± 1.34 s
ADR mouse; oral 20 mg/kg, extended over 3 hours
  Mean maximum reduction in righting time: ~60%
ADR mouse; oral 20 mg/kg, −10 mins (pre dosing)
  Mean ± SEM righting response time: 7.13 ± 1.84 s
[4]; 10 mg/kg (same molar dose level), time of maximal effect of 9-AC (+30 mins)
  Coefficient of variation of the response: 43.3%
[4]; drug 1 mg/kg po, 9-AC +10 mins (predrug)
  Mean ± SEM righting response time: 1.98 ± 0.115 s
[4]; drug 1 mg/kg po, 9-AC +30 mins
  Mean ± SEM righting response time: 3.52 ± 0.398 s
[4]; drug 1 mg/kg po, 9-AC +60 mins
  Mean ± SEM righting response time: 1.86 ± 0.195 s
[4]; drug 1 mg/kg po, 9-AC +120 mins
  Mean ± SEM righting response time: 1.07 ± 0.0369 s
[4]; drug 1 mg/kg po, 9-AC +180 mins
  Mean ± SEM righting response time: 0.714 ± 0.0427 s
[4]; drug 5 mg/kg po, 9-AC +10 mins (predrug)
  Mean ± SEM righting response time: 2.24 ± 0.208 s
[4]; drug 5 mg/kg po, 9-AC +60 mins
  Mean ± SEM righting response time: 2.22 ± 0.0828 s
[4]; drug 5 mg/kg po, 9-AC +120 mins
  Mean ± SEM righting response time: 1.32 ± 0.194 s
[4]; drug 5 mg/kg po, 9-AC +180 mins
  Mean ± SEM righting response time: 1.11 ± 0.220 s
[4]; drug 10 mg/kg po, 9-AC +10 mins (predrug)
  Mean ± SEM righting response time: 3.07 ± 0.754 s
[4]; drug 10 mg/kg po, 9-AC +60 mins
  Mean ± SEM righting response time: 2.33 ± 0.472 s
[4]; drug 10 mg/kg po, 9-AC +120 mins
  Mean ± SEM righting response time: 1.26 ± 0.105 s
[4]; drug 10 mg/kg po, 9-AC +180 mins
  Mean ± SEM righting response time: 1.18 ± 0.156 s
[4]; drug 20 mg/kg po, 9-AC +10 mins (predrug)
  Mean ± SEM righting response time: 1.90 ± 0.274 s
[4]; drug 20 mg/kg po, 9-AC +60 mins
  Mean ± SEM righting response time: 1.51 ± 0.153 s
[4]; drug 20 mg/kg po, 9-AC +120 mins
  Mean ± SEM righting response time: 1.18 ± 0.0973 s
[4]; drug 20 mg/kg po, 9-AC +180 mins
  Mean ± SEM righting response time: 1.03 ± 0.0709 s
[4]; drug 40 mg/kg po, 9-AC +10 mins (predrug)
  Mean ± SEM righting response time: 2.10 ± 0.077 s
[4]; drug 40 mg/kg po, 9-AC +60 mins
  Mean ± SEM righting response time: 0.95 ± 0.166 s
[4]; drug 40 mg/kg po, 9-AC +120 mins
  Mean ± SEM righting response time: 0.669 ± 0.0558 s
[4]; drug 40 mg/kg po, 9-AC +180 mins
  Mean ± SEM righting response time: 0.570 ± 0.0576 s
[5]; oral
  Overall bioavailability of mexiletine from the prodrug vs mexiletine: ~2.75 fold
[5]; oral 5 mg mexiletine free base equivalents/kg, individual animals, vs mexiletine, Hydrochloride
  Frel: 163^c % and 152^c % and 232% and 303% and 283%
[5]; [8]
  AUC of mexiletine: 29.2* ng · h/mL and 33.3 ng · h/mL and 43.4 ng · h/mL and 40.6 ng · h/mL
  Cmax of mexiletine: 0.00821 µg/mL and 0.00899 µg/mL and 0.00797 µg/mL and 0.0104 µg/mL and 0.00884 µg/mL
  T>50% Cmax of mexiletine: 4.1 h (2×) and 2.5 h and 2.4 h and 3.9 h
  Tmax of mexiletine: 1 h (3×) and 2 h (2×)
  t 1/2 of mexiletine: 1.8* h and 2.6 h and 1.2 h and 2.5 h
[5]; oral 5 mg mexiletine free base equivalents/kg, ln2/mean k
  t 1/2 of mexiletine, mean: 1.9^b h
[5]; oral 5 mg mexiletine free base equivalents/kg, mean
  Cmax of mexiletine, mean: 0.00888 µg/mL
[5]; oral 5 mg mexiletine free base equivalents/kg, mean (values with extrapolated AUC > 25% omitted)
  AUC of mexiletine, mean: 0.0391 µg·h/mL
[5]; oral 5 mg mexiletine free base equivalents/kg, mean, vs mexiletine
  Frel, mean: 273%
[5]; oral 5 mg mexiletine free base equivalents/kg, median value
  Tmax of mexiletine, median: 1^a h
[5]; oral 5 mg mexiletine free base equivalents/kg, median value, Hydrochloride
  T>50% Cmax of mexiletine, median: 3.9^a h
[5]; oral 5 mg mexiletine free base equivalents/kg, median value, listed as MGAA, Hydrochloride
  T>50% Cmax of mexiletine, median: ~4.0 h
[5]; [9]
  AUC of mexiletine glutamic acid amide (prodrug): 0.269 µg·h/mL and 0.266 µg·h/mL and 0.223 µg·h/mL and 0.32 µg·h/mL and 0.413 µg·h/mL
  Cmax of mexiletine glutamic acid amide (prodrug): 0.127 µg/mL and 0.186 µg/mL and 0.101 µg/mL and 0.18 µg/mL and 0.138 µg/mL
  Tmax of mexiletine glutamic acid amide (prodrug): 0.25 h and 0.5 h (2×) and 1.0 h (2×)
  t 1/2 of mexiletine glutamic acid amide (prodrug): 1.0 h and 0.9 h (2×) and 1.9 h and 1.3 h
[5]; oral 5 mg mexiletine free base equivalents/kg, plasma prodrug, ln2/mean k
  t 1/2 of mexiletine glutamic acid amide (prodrug), mean: 1.0^b h
[5]; [10]
  AUC of mexiletine glutamic acid amide (prodrug), mean: 0.298 µg·h/mL
  Cmax of mexiletine glutamic acid amide (prodrug), mean: 0.146 µg/mL
[5]; oral 5 mg mexiletine free base equivalents/kg, plasma prodrug, median value
  Tmax of mexiletine glutamic acid amide (prodrug), median: 0.5^a h
[6]
  pH 7.4, 37° C. 0.1M phosphate buffer: % remaining after 2 h/37° C.: 100%
